For test [1], the system named is collagenase-induced ICH. The experiment in a line: Neurological testing: apomorphine-induced rotational behavior after ICH. The settings on record: 2 days after ICH; vehicle approximately 20. It counts as in vivo, rat. From the text: (§1) All animals received humane care in compliance with the institute's guidelines as outlined in “Guide for the Care and Use of Laboratory Animals” prepared by the National Academy of Sciences and published by the National Institutes of Health (NIH publication no. 86-23, revised 1985). Female Sprague-Dawley rats (250-300 grams (g); Harlan Sprague-Dawley, Inc., Indianapolis, Ind.) were anesthesized with an intramuscular injection of a mixture of ketamine and xylazine and set in supine in a Kopf headholder. The right carotid artery, external and internal branches, was exposed and the distal end of the external carotid freed and retracted to line with the internal carotid. A PE-10 polyethylene tube (Becton-Dickinson, Sparks, Md.) was then introduced from the external into the internal carotid artery, and the former was ligated to hold the tube. […]
(§2) The animals were tested for rotational behavior in response to apomorphine 2 days after surgery. Apomorphine (1 mg/kg bw; Sigma Chemical Co.) was injected subcutaneously, and rotations were determined by a computer-controlled Columbus Instruments Videomex-V system (Columbus, Ohio). […] Step initiation was assessed at 2 days after ICH by independently analyzing stepping behavior in the left and right forelimbs. […] The number of steps initiated by each limb was counted during a 1-minute period.

Test [2] deals with collagenase-induced ICH. Description: Neurological testing: limb placement / step initiation after ICH. It counts as in vivo, rat.
Description: as §1, §2

Test [3] concerns TUNEL-positive (apoptotic) cells in hemisphere ipsilateral to ICH. Description: TUNEL staining of apoptotic cells in ICH rat brain. It counts as in vivo. From the text:
All animals received humane care in compliance with the institute's guidelines as outlined in “Guide for the Care and Use of Laboratory Animals” prepared by the National Academy of Sciences and published by the National Institutes of Health (NIH publication no. 86-23, revised 1985). Female Sprague-Dawley rats (250-300 grams (g); Harlan Sprague-Dawley, Inc., Indianapolis, Ind.) were anesthesized with an intramuscular injection of a mixture of ketamine and xylazine and set in supine in a Kopf headholder. The right carotid artery, external and internal branches, was exposed and the distal end of the external carotid freed and retracted to line with the internal carotid. A PE-10 polyethylene tube (Becton-Dickinson, Sparks, Md.) was then introduced from the external into the internal carotid artery, and the former was ligated to hold the tube. TUDCA (Calbiochem-Novabiochem Corp., San Diego, Calif.) was dissolved in phosphate buffer, pH 7.4 at 400 milligrams per milliliter (mg/ml). Saline or TUDCA solution (1 milliliter per kilogram body weight (ml/kg bw)) were injected directly into the internal carotid artery, within 5 minutes. Different concentrations of TUDCA (10, 50, 100, and 200 mg/kg bw) were administered 1 hour prior to, or 1, 3, and 6 hours after collagenase injection. The polyethylene tube was finally removed, the end of the external carotid artery cauterized, and the wound closed. To induce stroke injury, the animals were placed in a stereotaxic apparatus and ICH induced by collagenase infusion (Rosenberg et al., Stroke 1990;21:801-807 and Chesney et al., Stroke 1995;26:312-316). In brief, a midline incision was made through the scalp to expose the skull. […]
At 2 days after collagenase infusion, rats were sacrificed for terminal deoxynucleotidyltransferase-mediated dUTP nick end labeling (TUNEL) of apoptotic cells. […] The number of TUNEL-positive cells was counted on a computer screen grid from at least three random fields (400×) within the region adjacent to the hemorrhagic core for each animal.

In test [4] the test system is Bcl-2, Bcl-xL, Bax. Description: Bcl-2 family protein (immunoblot) and mRNA (RT-PCR) in ICH rat brain. It counts as in vivo. As to conditions: TUDCA 10-200 mg/kg bw, ipsilateral hemisphere. From the text: All animals received humane care in compliance with the institute's guidelines as outlined in “Guide for the Care and Use of Laboratory Animals” prepared by the National Academy of Sciences and published by the National Institutes of Health (NIH publication no. 86-23, revised 1985). Female Sprague-Dawley rats (250-300 grams (g); Harlan Sprague-Dawley, Inc., Indianapolis, Ind.) were anesthesized with an intramuscular injection of a mixture of ketamine and xylazine and set in supine in a Kopf headholder. The right carotid artery, external and internal branches, was exposed and the distal end of the external carotid freed and retracted to line with the internal carotid. A PE-10 polyethylene tube (Becton-Dickinson, Sparks, Md.) was then introduced from the external into the internal carotid artery, and the former was ligated to hold the tube. TUDCA (Calbiochem-Novabiochem Corp., San Diego, Calif.) was dissolved in phosphate buffer, pH 7.4 at […] milligrams per milliliter (mg/ml). Saline or TUDCA solution (1 milliliter per kilogram body weight (ml/kg bw)) were injected directly into the internal carotid artery, within 5 minutes. Different concentrations of TUDCA (10, 50, 100, and 200 mg/kg bw) were administered 1 hour prior to, or 1, 3, and 6 hours after collagenase injection. The polyethylene tube was finally removed, the end of the external carotid artery cauterized, and the wound closed. To induce stroke injury, the animals were placed in a stereotaxic apparatus and ICH induced by collagenase infusion (Rosenberg et al., Stroke 1990;21:801-807 and Chesney et al., Stroke 1995;26:312-316). In brief, a midline incision was made through the scalp to expose the skull. […] (0.5 microliters per minute (μL/min)) of saline containing 0.5 unit (U) bacterial collagenase (type VII; Sigma Chemical Co., St. Louis, Mo.) was made stereotaxically into the striatum with a 10-μl Hamilton syringe at the following coordinates: 0.4 millimeter (mm) anterior and 3.0 mm lateral to bregma and 5.0 mm ventral to the cortical surface. Once the infusion was complete, the Hamilton syringe was left in place for 3 minutes. Body temperature was maintained at 37° C. with a CMA/150 temperature controller throughout the surgery. The rats recovered from surgery in a cage containing food and heated by an incandescent light bulb. Neurological testing was performed at 2 days after induction of ICH. The animals were then sacrificed, and the brains removed and frozen at −70° C. for either serial cryostat sectioning, or RNA and protein extraction. In a subset of animals, serum and brain samples were collected for bile acid analysis.
Changes in Bcl-2 family expression were determined by RT-PCR. Total RNA was extracted from brain tissue using the TRIZOL reagent from Life Technologies, Inc. (Grand Island, N.Y.). For RT-PCR, 5 μg of total RNA was reverse-transcribed using oligo(dT) (IDT, Inc., Coralville, Iowa) and SUPERSCRIPT II reverse transcriptase (Life Technologies Inc.). Specific oligonucleotide primer pairs were incubated with cDNA template for PCR amplification using the Expand High Fidelity PCR System from Roche Diagnostics, GmbH. […] Amplified PCR products were analyzed by agarose gel electrophoresis and ethidium bromide staining. […]
(A western blot detects proteins with antibodies after separation by electrophoresis.)

Experimental findings from patent US20060135494A1, “Methods of treating injuries of the nervous system associated with hemorrhage” (priority 2002, published 2006) are described below.

On to `C[C@H](CCC(=O)NCCS(=O)(=O)O)[C@H]1CC[C@H]2[C@@H]3[C@@H](O)C[C@@H]4C[C@H](O)CC[C@]4(C)[C@H]3CC[C@]12C` [TUDCA, tauroursodeoxycholic acid], for which the “rotational response to apomorphine” value in test [1] is reported as “less than 10 per 5 minutes”. The “improved motor activity in test of limb placement” value in test [2] (time-course experiment of TUDCA administration, 2 days after ICH) is listed as 25-40%. Further, the “steps initiated by left forelimb in 1-minute period versus vehicle” value in test [2] (unilateral striatal hemorrhage, 2 days) is “significantly more steps”. Also, the “number of apoptotic cells (apoptotic versus total cells)” value in test [3] (100 mg/kg bw TUDCA 1 hour before collagenase, ipsilateral hemisphere, vehicle almost 30%) is given as “approximately 10%”. The “TUNEL staining versus vehicle-injected animals” value in test [3] (100 mg/kg bw TUDCA, time-course 1 hour before to 6 hours after collagenase) is on record as “remained markedly lower”. The compound further registered a reduction of apoptosis in test [3] (TUDCA at greater dosages (than 100 mg/kg bw), 1 hour before collagenase) greater than 65%. In test [4], the “Bax protein” value was “returned to contralateral hemisphere values”; the “Bcl-XL mRNA (RT-PCR, words)” value is given as “decreased”; the “Bcl-xL protein levels” value is on record as “slightly diminished”; the “transcriptional activation of Bcl-2 (mRNA, RT-PCR, words)” value is given as “further increased”. In addition, in test [4] (dose-response study), the “Bcl-2 protein levels” value is “remained elevated”.
